# In patent US9096504B2, “Controlled chemical release of hydrogen sulfide” (Washington State University, priority 2010, dated 2015):
# How the values were obtained:
# [1] = Methylene blue experiment for H2S release in PBS buffer in presence of cysteine or GSH; assay type: physicochemical; details: for GSH Peaking time / GSH [H2S] at peaking time / Cys Peaking time / Cys [H2S] at peaking time: PBS buffer pH 7.4, donor 150 μM; for GSH Peaking time / GSH [H2S] at peaking time: 1.5 mM GSH, experimental period 3 hours; for Cys Peaking time / Cys [H2S] at peaking time: 1.5 mM cysteine; for GSH Peaking time (min) / GSH [H2S] at peaking time (μM) / Cys Peaking time (min) / Cys [H2S] at peaking time (μM): footnote a: donors 40 μM and cysteine 4.0 mM
# Procedure: Na2S Standard Curve for H2S Release
# 2.0 mM Na2S stock solution was prepared as described in previous section. Five aliquots of Na2S solution at 3.75 μL, 7.50 μL, 15.0 μL, 45.0 μL, and 112.5 μl were injected into the 4-mL vials containing H2O (1.0 mL), zinc acetate (1% w/v, 100 μL), N,N-dimethyl-1,4-phenylenediamine sulfate (200 μL, 20 mM) in 7.2 M HCl and ferric chloride (200 μL, 30 mM) in 1.2 M HCl, respectively. Stir the resultant solution for 15 minutes at room temperature. The absorbance (670 nm) of aliquots was determined using a UV-Vis spectrometer.
# Cysteine stock solution in H2O (400 mM, 112.5 μL) and N-(benzoylthio)benzamide 2 stock solution in THF (40 mM, 112.5 μL) were added into PBS buffer solution (30 mL, pH=7.4) containing EDTA (50 mM, 60 μL), respectively. Every 3 minute, 1.0 mL of aliquots were taken to 4-mL vials containing, zinc acetate (1% w/v, 100 μL), N,N-dimethyl-1,4-phenylenediamine sulfate (200 μL, 20 mM) in 7.2 M HCl and ferric chloride (200 μL, 30 mM) in 1.2 M HCl within 3 hours. Then the absorbance (670 nm) was determined using a UV-Vis spectrometer.
# The initial concentrations of H2S-donors shown below were 150 μM and the detection of H2S released from these molecules was measured in presence of 1.5 mM of cysteine or GSH, unless otherwise indicated.
# [2] = system: mice subjected to ischemia followed by reperfusion; experiment: Mouse model of ischemia followed by reperfusion (Elrod et al.); assay type: in vivo; details: compared to vehicle treated mice
# Procedure: The effects of compound 2 have been tested using the mouse model of Elrod et al. (Proc. Natl. Acad. Sci. USA 2007, 104, 15560). Briefly, mice were subjected to ischemia followed by reperfusion. During reperfusion, compound 2 was administered to the mice.
# [3] = H2S release measurement in plasma (colorimetry method); assay type: in vitro ADME, bovine/calf; details: plasma containing ~500 μM cysteine
# Procedure: It is known that plasma contains significant amount of free cysteine. We therefore measured H2S generation of 2-13 in plasma (containing ˜500 μM cysteine) using a colorimetry method.
# To 0.5 mL of bovine/calf plasma was added […] containing zinc acetate (1% w/v, 100 μL) and trichloroacetic acid (10% w/v, 600 μL). The mixture was allowed to centrifuge for 10 min (5000 g). The precipitate was filtered out and 1.2 mL of the clear solution was transferred into a 2-mL vial containing N,N-dimethyl-1,4-phenylenediamine sulfate (150 μL, 20 mM) in 7.2 M HCl and ferric chloride (150 μL, 30 mM) in 1.2 M HCl. […] The absorbance (670 nm) of aliquots of the resulting solution (1.5 mL) was determined using a UV-VIS spectrometer. The concentration of MB^+ was then converted to the concentration of H2S according to the reaction equation shown above and the calibration curve was generated by plotting the absorbance versus [H2S].
# To 2.0 mL of bovine/calf plasma (containing cysteine […]) was added 2 mL water solution containing 5a (25 μl, of 80 mM in DMSO). […] Subsequently, N,N-dimethyl-p-phenylenediamine sulfate (20 mM, 150 μL) in 7.2 M HCl was added followed by FeCl3 (30 mM, 150 μL) in 1.2 M HCl, and absorbance (670 nm) of aliquots of the resulting solution (1.5 mL) was determined 20 minutes thereafter using a UV-Vis spectrometer.
GSH [H2S] at peaking time [1] [µM],Cys [H2S] at peaking time [1] [µM],SMILES,GSH Peaking time [1] [min],Cys Peaking time [1] [min],further results
140.4,143.6,"O=C(NSC(=O)c1ccccc1)c1ccccc1 [Compound 2, N-(benzoylthio)benzamide]",39,24,"reduction in infarct size per area-at-risk (INF/AAR) ([2]; 100 μg/kg bolus during reperfusion, maximal): 40%; infarct size per area-at-risk (INF/AAR), dose dependence ([2]; administered during reperfusion): dose-dependent reduction; H2S generation in plasma [3]: time-dependent H2S release"
59.5,110.0,O=C(NSC(=O)c1ccc(C(F)(F)F)cc1)c1ccccc1 [Compound 4],27,26,
61.9,85.0,Cc1ccccc1C(=O)SNC(=O)c1ccccc1 [Compound 6],45,34,
131.0,141.8,Cc1cccc(C(=O)SNC(=O)c2ccccc2)c1 [Compound 7],39,28,
48.3,52.8,COc1ccccc1C(=O)SNC(=O)c1ccccc1 [Compound 9],48,36,
100.5,92.4,COc1ccc(C(=O)SNC(=O)c2ccccc2)cc1 [Compound 11],40,27,
116.1,132.6,CC(=O)SNC(=O)c1ccccc1 [Compound 19],18,12,
103.6,106.1,CCC(=O)SNC(=O)c1ccccc1 [Compound 20],35,28,
96.6,106.4,CC(C)(C)C(=O)SNC(=O)c1ccccc1 [Compound 21],90,55,
122.3,111.3,CCCC(=O)SNC(=O)c1ccccc1 [Compound 22],40,39,
116.6,120.9,CCC(=O)NSC(=O)c1ccccc1 [Compound 28],50,34,
,45.6,O=C(NSC(=O)C(c1ccccc1)c1ccccc1)c1ccccc1 [Compound 32],,60,
137,149,CC(=O)NC(C(=O)NCc1ccccc1)C(C)(C)SSC(=O)c1ccccc1 (stereo not drawn) [Compound 34],39,33,melting point: 143 to 145 °C

# Further lines, the compound ahead of its results:
SMILES,GSH [H2S] at peaking time [1] [µM],Cys [H2S] at peaking time [1] [µM],GSH Peaking time [1] [min],Cys Peaking time [1] [min],further results
O=C(NSC(=O)c1ccccc1)Nc1ccccc1,23.4,33.9,30,15,
O=C(NSC(=O)c1ccc(F)cc1)c1ccccc1 [Compound 3],122.6,143.1,36,18,
O=C(NSC(=O)c1cccc(Cl)c1)c1ccccc1 [Compound 5],146.5,142.1,36,24,
Cc1ccc(C(=O)SNC(=O)c2ccccc2)cc1 [Compound 8],100.3,93.9,30,27,
COc1cccc(C(=O)SNC(=O)c2ccccc2)c1 [Compound 10],133.6,111.6,20,25,
COc1ccc(C(=O)SNC(=O)c2ccccc2)c(OC)c1 [Compound 12],,,,,GSH Peaking time (min) [1]: 120 ^a min; GSH [H2S] at peaking time (μM) [1]: 13.2 ^a μM; Cys Peaking time (min) [1]: 50 ^a min; Cys [H2S] at peaking time (μM) [1]: 23.0 ^a μM
CN(C)c1ccc(C(=O)SNC(=O)c2ccccc2)cc1 [Compound 13],,,,,GSH Peaking time (min) [1]: 30 ^a min; GSH [H2S] at peaking time (μM) [1]: 15.0 ^a μM; Cys Peaking time (min) [1]: 22 ^a min; Cys [H2S] at peaking time (μM) [1]: 17.5 ^a μM
O=C(NSC(=O)C1CCCCC1)c1ccccc1 [Compound 16],81.9,72.4,36,18,
O=C(NSC(=O)C1CCCC1)c1ccccc1 [Compound 17],110.9,100.6,32,18,
CC(C)C(=O)SNC(=O)c1ccccc1 [Compound 18],101.1,131.6,52,36,
Cc1ccccc1C(=O)NSC(=O)c1ccccc1 [Compound 24],130.5,146.9,30,24,
O=C(NSC(=O)c1ccccc1)c1cccc(Cl)c1 [Compound 25],84.3,83.6,27,26,
O=C(NSC(=O)c1ccccc1)c1ccc(F)cc1 [Compound 26],104.1,110.6,42,34,
CC(=O)NSC(=O)c1ccccc1 [Compound 27],149.6,145.4,39,30,
CCCC(=O)NSC(=O)c1ccccc1 [Compound 29],98.9,102.8,39,30,
O=C(Cc1ccccc1)SNC(=O)c1ccccc1 [Compound 30],104.9,108.6,44,30,
CC(C(=O)SNC(=O)c1ccccc1)c1ccccc1 (stereo not drawn) [Compound 31],103.8,130.4,52,36,
COC(=O)C(CSSC(=O)c1ccccc1)NC(=O)c1ccccc1 (stereo not drawn) [Compound 33],18.3,25.8,45,35,
